In ChEMBL document CHEMBL1201862, “PubChem BioAssay data set” (2004):
Active and inactive are the calls of the source.

Experiments:
[1] = Luminescence Cell-Based Dose Retest to Confirm Inhibitors of Cancer Stem Cells. [Related pubchem assays (depositor defined):AID2717, AID2721]; assay type: functional; settings: Homo sapiens
[2] = HeLa cell cytotoxicity, dose response, cytotoxicity control for MgcRacGAP inhibitor project (AID 624300); assay type: functional
[3] = target: T1, Rac GTPase-activating protein 1 (Homo sapiens, UniProt Q9H0H5); assay: MgcRacGAP GTPase-activating activity inhibitors, confirmation, biochemical, ADP Hunter fluorescence, primary and confirmatory (AID 624330); assay type: functional
T1 sequence (Q9H0H5 whole entry): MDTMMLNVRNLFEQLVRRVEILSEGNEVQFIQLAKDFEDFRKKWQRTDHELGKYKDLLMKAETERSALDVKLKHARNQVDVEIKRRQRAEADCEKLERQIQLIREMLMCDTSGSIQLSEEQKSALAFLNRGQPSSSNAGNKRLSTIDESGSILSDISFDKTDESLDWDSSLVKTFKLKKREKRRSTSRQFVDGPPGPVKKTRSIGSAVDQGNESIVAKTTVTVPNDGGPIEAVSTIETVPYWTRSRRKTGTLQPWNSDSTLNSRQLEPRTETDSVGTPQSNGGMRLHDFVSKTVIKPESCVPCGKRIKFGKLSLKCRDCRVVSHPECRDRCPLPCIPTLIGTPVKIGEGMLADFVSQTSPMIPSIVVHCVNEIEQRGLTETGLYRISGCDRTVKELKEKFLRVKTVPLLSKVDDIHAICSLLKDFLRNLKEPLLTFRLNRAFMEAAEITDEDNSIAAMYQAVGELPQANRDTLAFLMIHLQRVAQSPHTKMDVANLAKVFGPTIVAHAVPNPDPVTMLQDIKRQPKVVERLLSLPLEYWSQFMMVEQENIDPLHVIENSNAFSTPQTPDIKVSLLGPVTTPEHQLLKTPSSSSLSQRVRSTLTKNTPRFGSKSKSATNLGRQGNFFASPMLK

[4] = target: Glyceraldehyde-3-phosphate dehydrogenase (Homo sapiens, UniProt P04406)
[5] = tested on: Streptococcus sp. 'group A'; assay: growth inhibition of control SK(-) GAS strain, dose response, counter-screen for streptokinase expression inhibitor project, luminescence, kanamycin, BacTiterGlo, confirmation (AID 1900); assay type: functional, organism-based
Streptokinase A = target: T2, Streptokinase A (Streptococcus pyogenes serotype M1, UniProt P10520); assay: S. pyogenes streptokinase expression inhibitors, potency, dose response, plasminogen activation absorbance, OD405 (AID 1914); assay type: functional, Streptococcus pyogenes M1 GAS;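 further: secreted streptokinase activity via plasminogen activation per viability signal from cell pellet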
T2 sequence (P10520 whole entry): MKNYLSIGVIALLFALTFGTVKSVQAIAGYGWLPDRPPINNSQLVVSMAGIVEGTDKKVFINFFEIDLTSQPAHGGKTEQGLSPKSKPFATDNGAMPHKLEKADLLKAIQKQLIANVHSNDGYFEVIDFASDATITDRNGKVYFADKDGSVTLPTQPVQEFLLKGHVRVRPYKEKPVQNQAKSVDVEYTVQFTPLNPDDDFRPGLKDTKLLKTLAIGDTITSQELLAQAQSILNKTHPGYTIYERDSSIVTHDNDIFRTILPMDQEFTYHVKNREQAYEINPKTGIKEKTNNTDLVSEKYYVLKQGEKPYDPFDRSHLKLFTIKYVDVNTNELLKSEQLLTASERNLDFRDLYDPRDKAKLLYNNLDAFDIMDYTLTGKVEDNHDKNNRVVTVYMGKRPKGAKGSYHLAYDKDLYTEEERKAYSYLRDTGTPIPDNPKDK

[6] = growth suppression of PTEN-null colon cells, dose response, cell-based, HCT116 PTEN knockout (AID 1047); assay type: functional;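 further: HCT116 colon tumor cells with PTEN knocked out; cells exposed to compound for 60 hours before readout; potency for loss of cell viability measured by luminescence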
[7] = growth suppression of beta-catenin-knockout colon cells, dose response, cell-based, HCT116, human colon tumor (AID 1045); assay type: functional;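 further: HCT116 colon tumor cells with beta catenin knocked out; cells exposed to compound for 60 hours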
Streptococcus = assay: Group A Streptococcus viability loss, dose response, counter-screen for streptokinase expression inhibitor project, luminescence, BacTiterGlo (AID 1915); assay type: functional, organism-based;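 further: potency for reduction of bacterial viability or growth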
[8] = target: T3, Heat shock factor protein 1 (Mus musculus, UniProt P38532); assay: HSF1 potentiators in luciferase reporter cells, confirmation, cell-based, NIH3T3, luminescence, dose retest (AID 435004); assay type: functional;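 further: stress induced by proteasome inhibitor MG132 added 30 min after compound; luciferase reporter driven by HSF1 response element in NIH3T3 cells; actives raise luminescence as potentiators of the MG132 stress response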
T3 sequence (P38532 whole entry): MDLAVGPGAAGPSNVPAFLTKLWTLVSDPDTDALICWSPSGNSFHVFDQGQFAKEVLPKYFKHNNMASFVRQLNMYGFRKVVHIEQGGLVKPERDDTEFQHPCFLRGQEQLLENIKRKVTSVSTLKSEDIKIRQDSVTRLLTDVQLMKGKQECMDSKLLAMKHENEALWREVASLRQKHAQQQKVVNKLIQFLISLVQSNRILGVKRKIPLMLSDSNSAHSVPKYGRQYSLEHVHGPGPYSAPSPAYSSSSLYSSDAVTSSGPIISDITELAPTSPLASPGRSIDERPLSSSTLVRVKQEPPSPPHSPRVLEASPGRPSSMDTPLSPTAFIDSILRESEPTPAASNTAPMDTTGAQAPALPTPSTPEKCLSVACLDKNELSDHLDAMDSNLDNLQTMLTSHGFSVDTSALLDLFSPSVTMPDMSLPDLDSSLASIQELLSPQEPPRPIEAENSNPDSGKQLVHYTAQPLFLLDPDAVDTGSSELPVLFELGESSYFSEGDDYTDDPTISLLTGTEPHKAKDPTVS

Genome polyprotein = Genome polyprotein (dengue virus type 2, UniProt P29990); assay: Dengue-2 NS5 methyltransferase inhibitors, primary screen, biochemical, confirmation dose response (AID 588689); assay type: functional
[9] = target: T4, High affinity choline transporter 1 (Homo sapiens, UniProt Q9GZV3); assay: CHT inhibitors, dose response, cell-based, 5-point CRC, membrane potential dye (AID 504840); assay type: functional
T4 sequence (Q9GZV3 whole entry): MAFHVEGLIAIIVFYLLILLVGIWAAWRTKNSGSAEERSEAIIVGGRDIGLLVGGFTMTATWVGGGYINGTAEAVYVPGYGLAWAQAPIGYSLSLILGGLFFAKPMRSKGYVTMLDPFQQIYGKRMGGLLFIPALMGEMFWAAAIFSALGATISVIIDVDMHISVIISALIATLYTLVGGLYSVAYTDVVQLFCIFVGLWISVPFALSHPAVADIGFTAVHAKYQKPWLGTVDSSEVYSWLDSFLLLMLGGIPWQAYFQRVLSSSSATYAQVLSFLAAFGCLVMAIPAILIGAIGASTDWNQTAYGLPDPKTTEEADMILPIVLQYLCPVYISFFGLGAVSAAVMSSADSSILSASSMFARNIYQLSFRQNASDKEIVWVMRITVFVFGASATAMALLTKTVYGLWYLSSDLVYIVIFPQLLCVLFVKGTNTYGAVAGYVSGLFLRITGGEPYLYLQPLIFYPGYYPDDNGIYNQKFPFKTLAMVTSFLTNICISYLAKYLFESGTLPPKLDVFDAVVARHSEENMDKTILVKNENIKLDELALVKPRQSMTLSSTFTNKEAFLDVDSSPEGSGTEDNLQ

[10] = target: FAD-linked sulfhydryl oxidase ALR (Homo sapiens, UniProt P55789); assay: inhibitors of human ALR sulfhydryl oxidase, dose response, biochemical, H2O2 detection, luminescence, cherry-pick (AID 493248)
Estrogen receptor beta = Estrogen receptor beta (Homo sapiens, UniProt Q92731);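 further: recombinant ER-beta bound to coactivator SRC1 peptide in presence of estradiol agonist; inhibitors block coactivator peptide binding and lower the FRET signal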
Vero = assay: cells; assay type: functional; settings: Chlorocebus sabaeus
[11] = Luminescence Cell-Based Dose Response HTS to Identify Inhibitors of 5'UTR Stem-Loop Driven Prion Protein mRNA Translation in H4 Neuroglioblastoma Cells. [Related pubchem assays: 1827 (Project Summary), 1813 (Primary HTS)]; assay type: functional
[12] = inhibitors of SNCA 5'UTR-driven reporter translation, confirmation, H4 neuroglioma cells, luminescence (AID 1988); assay type: functional, cell-based
[13] = microbe, parasite or virus in culture; assay type: functional; settings: Mycobacterium tuberculosis
[14] = A549 cell cytotoxicity, dose response, cytotoxicity control, plate reader, cherry-pick, antagonist series (AID 743412); assay type: functional, cell-based
[15] = HepG2 cell cytotoxicity, dose response, cytotoxicity control, plate reader, cherry-pick, antagonist series (AID 743416); assay type: functional, cell-based
[16] = LGR2 antagonists, dose response, cell-based, HEK293, CRE-luciferase reporter, cherry pick, set 2 (AID 743343); assay type: functional;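 further: transfected cells were stimulated with diluted bursicon conditioned medium after compound addition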
[17] = MC4R antagonists, dose response, counter-screen for LGR2 antagonist project, cell-based, plate reader, cherry pick (AID 743444); assay type: functional;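 further: transfected HEK 293 cells stimulated with alpha-MSH peptide; potency of inhibitors of the alpha-MSH evoked signal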

Genome polyprotein, sequence (P29990 2492-3391 limits assumed): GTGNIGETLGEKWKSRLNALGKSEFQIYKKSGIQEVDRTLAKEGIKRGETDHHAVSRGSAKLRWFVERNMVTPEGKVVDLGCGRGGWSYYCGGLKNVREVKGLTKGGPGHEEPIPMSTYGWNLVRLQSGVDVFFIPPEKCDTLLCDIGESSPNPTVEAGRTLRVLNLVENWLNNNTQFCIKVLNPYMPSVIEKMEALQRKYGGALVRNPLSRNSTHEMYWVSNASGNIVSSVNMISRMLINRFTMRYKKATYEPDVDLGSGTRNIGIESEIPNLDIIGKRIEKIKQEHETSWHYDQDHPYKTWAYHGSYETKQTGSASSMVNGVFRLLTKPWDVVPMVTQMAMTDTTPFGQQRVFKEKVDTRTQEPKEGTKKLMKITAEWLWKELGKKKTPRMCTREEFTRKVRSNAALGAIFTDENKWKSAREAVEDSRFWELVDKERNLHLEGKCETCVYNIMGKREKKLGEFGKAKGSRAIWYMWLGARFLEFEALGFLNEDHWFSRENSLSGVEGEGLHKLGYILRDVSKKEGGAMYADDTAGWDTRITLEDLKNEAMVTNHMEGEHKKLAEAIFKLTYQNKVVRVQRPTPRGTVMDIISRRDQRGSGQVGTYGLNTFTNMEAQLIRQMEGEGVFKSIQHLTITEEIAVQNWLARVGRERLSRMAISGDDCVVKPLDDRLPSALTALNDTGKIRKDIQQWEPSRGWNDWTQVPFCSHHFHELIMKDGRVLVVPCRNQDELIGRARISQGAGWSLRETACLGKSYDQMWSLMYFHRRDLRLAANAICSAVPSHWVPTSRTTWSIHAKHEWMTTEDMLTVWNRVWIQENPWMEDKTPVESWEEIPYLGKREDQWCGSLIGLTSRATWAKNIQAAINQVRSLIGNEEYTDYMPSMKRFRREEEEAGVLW
Glyceraldehyde-3-phosphate dehydrogenase, sequence (P04406 whole entry): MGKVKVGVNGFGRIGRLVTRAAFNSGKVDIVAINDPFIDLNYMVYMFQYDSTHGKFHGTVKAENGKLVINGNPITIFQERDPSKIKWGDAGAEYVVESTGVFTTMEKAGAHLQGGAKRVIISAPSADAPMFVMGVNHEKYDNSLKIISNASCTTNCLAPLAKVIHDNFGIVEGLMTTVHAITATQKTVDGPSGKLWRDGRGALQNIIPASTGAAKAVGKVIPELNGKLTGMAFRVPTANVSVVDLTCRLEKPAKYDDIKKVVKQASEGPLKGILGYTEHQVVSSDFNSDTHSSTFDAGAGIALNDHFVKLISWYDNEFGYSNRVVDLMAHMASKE
Estrogen receptor beta, sequence (Q92731 whole entry): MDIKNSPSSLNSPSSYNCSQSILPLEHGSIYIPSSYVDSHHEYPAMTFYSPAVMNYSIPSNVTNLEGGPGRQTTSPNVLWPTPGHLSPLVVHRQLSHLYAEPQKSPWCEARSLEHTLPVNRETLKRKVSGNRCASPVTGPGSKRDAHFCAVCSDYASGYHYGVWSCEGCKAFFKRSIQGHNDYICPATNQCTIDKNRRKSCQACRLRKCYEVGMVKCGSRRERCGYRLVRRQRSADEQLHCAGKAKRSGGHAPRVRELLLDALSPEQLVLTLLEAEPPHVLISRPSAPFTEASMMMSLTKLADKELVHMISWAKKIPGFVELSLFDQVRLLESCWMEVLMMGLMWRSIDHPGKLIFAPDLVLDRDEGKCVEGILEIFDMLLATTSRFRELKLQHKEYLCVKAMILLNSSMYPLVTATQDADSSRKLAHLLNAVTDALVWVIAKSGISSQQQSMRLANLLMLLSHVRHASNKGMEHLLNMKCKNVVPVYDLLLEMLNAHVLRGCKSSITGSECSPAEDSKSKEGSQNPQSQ
FAD-linked sulfhydryl oxidase ALR, sequence (P55789 whole entry): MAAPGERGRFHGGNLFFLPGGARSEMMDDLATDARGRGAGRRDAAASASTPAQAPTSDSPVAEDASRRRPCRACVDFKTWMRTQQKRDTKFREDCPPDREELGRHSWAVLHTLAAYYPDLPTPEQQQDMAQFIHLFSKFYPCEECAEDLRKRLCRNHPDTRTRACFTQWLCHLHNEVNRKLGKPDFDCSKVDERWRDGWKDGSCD

With `Cc1ccc(-c2cc(C(=O)N3CCN(c4ccc(O)cc4)CC3)c3ccccc3n2)cc1` the AC50 [1] was 6.6 µM (active), the CC50 [2] was 100 µM (active) and the IC50 [3] was 88 µM (active).

For `CN1CCN(C2=C(Cl)C(=O)N(c3ccc(Cl)nc3)C2=O)CC1`, the IC50 [4] was > 50 µM (inconclusive).

For `OC(CNCc1ccco1)Cn1c2ccc(Br)cc2c2cc(Br)ccc21` (configuration not stated), the EC50 [5] was 4.22 µM (active), the EC50 (Streptokinase A) was > 150 µM (not active) and the EC50 [6] was 9.13 µM (active). The EC50 [7] was 8.59 µM (active), the EC50 (Streptococcus) was 13.7 µM (active) and the AC50 [1] was 3 µM (active). The EC50 [8] was > 260 µM (inactive).

With `CC(=O)n1cc(C=C2C(=O)NC(=O)NC2=O)c2ccccc21` the IC50 (Genome polyprotein) was 42.8 µM (active).

With `O=C(Cn1ncc2c3ccccc3n(Cc3ccccc3)c2c1=O)NCCN1CCOCC1` the IC50 [9] was 11.2 µM (active).

In the case of `Clc1ccc(-c2nc3cnccn3c2NC2CCCC2)cc1`, the AC50 [10] is reported as 4.85 µM (active).

With `CCOC(=O)CN1CC23C=CC(O2)C(C(=O)Nc2cc(OC)ccc2OC)C3C1=O` (configuration not stated) the IC50 (Estrogen receptor beta) was > 50 µM (not active).

In the case of `O=C(Nc1ccccc1C(F)(F)F)N1CCN(c2ccc3nnc(-c4ccc(F)cc4)n3n2)CC1`, the CC50 (Vero) is reported as > 25 µM (active).

With `COc1ccc(-c2cc3nc(CCl)nc(O)c3s2)cc1` the EC50 [11] was 11.8 µM (active), the EC50 [12] was 11 µM (active) and the CC50 [13] was 6.88 µM (active). For the same compound, the AC50 [14] was 16.8 µM (active), the AC50 [15] was 17.1 µM (active) and the AC50 [16] was 6.33 µM (active). For the same compound, the AC50 [17] was 8.71 µM (active).

With `Cc1ccc(-n2nnnc2Sc2ccc(S(=O)(=O)NCCN(C)C)cc2[N+](=O)[O-])cc1` the EC50 [6] was 2.26 µM (active), the EC50 [7] was 2.05 µM (active) and the AC50 [1] was 2.59 µM (active).

For `O=c1cc(-c2ccccc2)c2c(O)cc(O)cc2o1`, the IC50 [9] was 13.7 µM (active).

With `O=C(O)CCC(=O)Nc1ccc(O)c(C(=O)O)c1` the IC50 [4] was > 100 µM (not active).

In the case of `Cc1ccc(-c2[nH]c3ccccc3c2SCCNC(=O)c2ccc(S(=O)(=O)N3CCOCC3)cc2)cc1`, the EC50 [6] is reported as 112 µM (active) and the EC50 [7] is reported as 152 µM (active).

In the case of `COc1cccc(/C=C2/C(=O)NN(c3ccccc3)C2=O)c1`, the IC50 (Genome polyprotein) is reported as 45.8 µM (active).

In the case of `COc1cc(OC)c(NC(=O)C(=O)CC(=O)c2ccc(C)cc2C)cc1Cl`, the CC50 (Vero) is reported as 9.4 µM (active).
